Columns and labels:
Assay type in all cases: biochemical
Tyk2 = Tyk2 (Homo sapiens, UniProt P29597); assay: Inhibition of JAK kinase activity, EZ Reader microfluidic phosphorylation of peptide substrate: Tyk2; conditions: Tyk2 kinase 1 nM; highest final concentration 10 μM, 1:3 serial dilution, 8 points, duplicates
Method in brief: (§1)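 Microfluidic mobility-shift assay reading fluorescent peptide substrate and product; kinases at 20 nM (JAK1) or 1 nM (JAK2, JAK3, Tyk2) in pH 7.4 HEPES with 10 mM MgCl2, run at room temperature to 20-30% conversion, then stopped with EDTA. Compounds tested from 10 μM top, 1:3 over 8 points in duplicate; IC50 fitted from % conversion.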

JAK1 = JAK1 (Homo sapiens, UniProt P23458); assay: Inhibition of JAK kinase activity, EZ Reader microfluidic phosphorylation of peptide substrate: JAK1; conditions: JAK1 kinase 20 nM; highest final concentration 10 μM, 1:3 serial dilution, 8 points, duplicates
Chain of JAK1 (P23458 whole entry): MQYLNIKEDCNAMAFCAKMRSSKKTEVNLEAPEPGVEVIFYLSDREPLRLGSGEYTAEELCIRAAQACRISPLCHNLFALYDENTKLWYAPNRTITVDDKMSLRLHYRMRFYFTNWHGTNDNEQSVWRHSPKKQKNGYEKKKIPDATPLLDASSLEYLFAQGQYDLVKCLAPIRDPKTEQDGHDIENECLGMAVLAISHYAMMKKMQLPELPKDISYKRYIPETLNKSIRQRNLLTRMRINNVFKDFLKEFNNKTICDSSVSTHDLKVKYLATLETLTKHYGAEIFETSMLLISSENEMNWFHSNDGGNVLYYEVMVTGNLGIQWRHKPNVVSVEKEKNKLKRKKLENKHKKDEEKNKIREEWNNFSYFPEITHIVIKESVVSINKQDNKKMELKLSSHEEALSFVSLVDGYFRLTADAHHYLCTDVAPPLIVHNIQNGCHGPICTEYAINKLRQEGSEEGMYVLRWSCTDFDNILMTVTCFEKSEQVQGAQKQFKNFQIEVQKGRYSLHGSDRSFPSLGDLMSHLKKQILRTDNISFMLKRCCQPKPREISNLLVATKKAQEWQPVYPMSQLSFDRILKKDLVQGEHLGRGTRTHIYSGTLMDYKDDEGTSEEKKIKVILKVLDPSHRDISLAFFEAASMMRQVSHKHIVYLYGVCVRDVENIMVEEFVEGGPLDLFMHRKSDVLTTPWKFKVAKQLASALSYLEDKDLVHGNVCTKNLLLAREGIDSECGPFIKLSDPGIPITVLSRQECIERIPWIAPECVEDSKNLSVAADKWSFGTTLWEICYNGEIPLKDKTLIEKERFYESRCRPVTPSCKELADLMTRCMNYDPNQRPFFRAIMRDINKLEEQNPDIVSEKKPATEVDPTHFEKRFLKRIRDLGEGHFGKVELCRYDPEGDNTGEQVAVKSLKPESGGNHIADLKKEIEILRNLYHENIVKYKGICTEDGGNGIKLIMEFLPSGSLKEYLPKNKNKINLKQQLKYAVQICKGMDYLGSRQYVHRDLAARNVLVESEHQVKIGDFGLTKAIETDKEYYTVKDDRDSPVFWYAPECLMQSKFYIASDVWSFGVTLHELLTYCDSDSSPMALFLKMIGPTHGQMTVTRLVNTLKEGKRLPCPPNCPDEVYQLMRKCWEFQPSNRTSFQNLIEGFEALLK
Method in brief: as §1

JAK2 = JAK2 (Homo sapiens, UniProt O60674); assay: Inhibition of JAK kinase activity, EZ Reader microfluidic phosphorylation of peptide substrate: JAK2; conditions: JAK2 kinase 1 nM; highest final concentration 10 μM, 1:3 serial dilution, 8 points, duplicates
Chain of JAK2 (O60674 whole entry): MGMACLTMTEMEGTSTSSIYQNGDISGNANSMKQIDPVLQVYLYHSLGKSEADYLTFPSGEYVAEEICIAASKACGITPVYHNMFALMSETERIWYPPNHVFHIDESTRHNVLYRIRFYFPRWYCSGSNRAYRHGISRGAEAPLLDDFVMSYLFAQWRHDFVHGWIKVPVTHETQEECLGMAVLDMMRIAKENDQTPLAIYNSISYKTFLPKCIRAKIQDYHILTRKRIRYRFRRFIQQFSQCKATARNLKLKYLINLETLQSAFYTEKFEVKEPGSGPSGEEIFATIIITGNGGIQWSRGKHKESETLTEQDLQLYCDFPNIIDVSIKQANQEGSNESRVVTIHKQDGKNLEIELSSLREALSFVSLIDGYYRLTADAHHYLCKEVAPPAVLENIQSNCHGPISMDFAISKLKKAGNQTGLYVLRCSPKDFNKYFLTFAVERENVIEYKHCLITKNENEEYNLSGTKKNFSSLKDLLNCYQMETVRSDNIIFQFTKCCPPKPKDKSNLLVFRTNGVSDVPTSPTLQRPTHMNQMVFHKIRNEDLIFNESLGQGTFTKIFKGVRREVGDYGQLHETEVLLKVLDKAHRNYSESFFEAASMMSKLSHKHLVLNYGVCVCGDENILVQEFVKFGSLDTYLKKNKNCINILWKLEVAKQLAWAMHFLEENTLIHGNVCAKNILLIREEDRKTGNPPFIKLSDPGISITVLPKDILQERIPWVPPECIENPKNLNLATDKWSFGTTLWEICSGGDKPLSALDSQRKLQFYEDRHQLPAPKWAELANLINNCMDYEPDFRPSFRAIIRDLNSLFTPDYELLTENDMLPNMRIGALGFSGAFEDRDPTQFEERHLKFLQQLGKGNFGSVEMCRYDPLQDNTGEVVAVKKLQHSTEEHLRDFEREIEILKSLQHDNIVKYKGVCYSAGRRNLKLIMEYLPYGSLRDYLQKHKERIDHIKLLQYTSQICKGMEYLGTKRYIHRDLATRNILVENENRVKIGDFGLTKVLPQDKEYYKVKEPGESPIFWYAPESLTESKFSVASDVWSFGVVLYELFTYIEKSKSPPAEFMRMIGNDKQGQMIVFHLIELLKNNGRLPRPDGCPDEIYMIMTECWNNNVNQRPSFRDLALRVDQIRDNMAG
Method in brief: as §1

JAK3 = molecular target: T1, JAK3 (Homo sapiens, UniProt P52333); assay: Inhibition of JAK kinase activity, EZ Reader microfluidic phosphorylation of peptide substrate: JAK3; conditions: JAK3 kinase 1 nM; highest final concentration 10 μM, 1:3 serial dilution, 8 points, duplicates
T1 sequence (P52333 1-1124): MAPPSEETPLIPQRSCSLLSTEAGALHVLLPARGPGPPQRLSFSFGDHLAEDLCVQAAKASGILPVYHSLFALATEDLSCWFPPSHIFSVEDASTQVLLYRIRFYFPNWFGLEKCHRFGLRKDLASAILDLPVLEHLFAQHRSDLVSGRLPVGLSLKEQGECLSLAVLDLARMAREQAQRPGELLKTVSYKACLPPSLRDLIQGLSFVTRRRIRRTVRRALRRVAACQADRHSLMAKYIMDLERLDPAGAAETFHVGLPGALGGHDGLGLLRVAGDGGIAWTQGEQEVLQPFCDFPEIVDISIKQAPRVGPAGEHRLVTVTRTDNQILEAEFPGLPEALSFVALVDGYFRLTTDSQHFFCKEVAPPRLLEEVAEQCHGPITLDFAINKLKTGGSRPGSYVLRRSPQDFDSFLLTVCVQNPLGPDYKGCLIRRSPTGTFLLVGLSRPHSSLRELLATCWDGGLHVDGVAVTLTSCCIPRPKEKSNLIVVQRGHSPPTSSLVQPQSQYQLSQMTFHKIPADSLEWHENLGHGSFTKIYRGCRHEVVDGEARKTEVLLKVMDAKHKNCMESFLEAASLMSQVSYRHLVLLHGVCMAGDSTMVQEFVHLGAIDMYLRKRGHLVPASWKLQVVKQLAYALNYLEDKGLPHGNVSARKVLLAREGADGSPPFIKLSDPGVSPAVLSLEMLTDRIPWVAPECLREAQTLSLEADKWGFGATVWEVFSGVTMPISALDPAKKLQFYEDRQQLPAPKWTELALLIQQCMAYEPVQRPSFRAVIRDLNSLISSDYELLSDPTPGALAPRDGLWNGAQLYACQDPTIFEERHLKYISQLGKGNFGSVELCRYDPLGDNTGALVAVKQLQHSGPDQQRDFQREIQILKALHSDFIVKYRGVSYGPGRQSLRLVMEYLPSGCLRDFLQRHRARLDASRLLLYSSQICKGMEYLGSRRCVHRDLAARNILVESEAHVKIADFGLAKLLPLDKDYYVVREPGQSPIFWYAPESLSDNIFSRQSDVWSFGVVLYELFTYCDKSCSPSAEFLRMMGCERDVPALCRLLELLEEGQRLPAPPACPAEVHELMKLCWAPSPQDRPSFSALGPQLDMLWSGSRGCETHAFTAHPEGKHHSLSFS
Method in brief: as §1

Chain of Tyk2 (P29597 whole entry): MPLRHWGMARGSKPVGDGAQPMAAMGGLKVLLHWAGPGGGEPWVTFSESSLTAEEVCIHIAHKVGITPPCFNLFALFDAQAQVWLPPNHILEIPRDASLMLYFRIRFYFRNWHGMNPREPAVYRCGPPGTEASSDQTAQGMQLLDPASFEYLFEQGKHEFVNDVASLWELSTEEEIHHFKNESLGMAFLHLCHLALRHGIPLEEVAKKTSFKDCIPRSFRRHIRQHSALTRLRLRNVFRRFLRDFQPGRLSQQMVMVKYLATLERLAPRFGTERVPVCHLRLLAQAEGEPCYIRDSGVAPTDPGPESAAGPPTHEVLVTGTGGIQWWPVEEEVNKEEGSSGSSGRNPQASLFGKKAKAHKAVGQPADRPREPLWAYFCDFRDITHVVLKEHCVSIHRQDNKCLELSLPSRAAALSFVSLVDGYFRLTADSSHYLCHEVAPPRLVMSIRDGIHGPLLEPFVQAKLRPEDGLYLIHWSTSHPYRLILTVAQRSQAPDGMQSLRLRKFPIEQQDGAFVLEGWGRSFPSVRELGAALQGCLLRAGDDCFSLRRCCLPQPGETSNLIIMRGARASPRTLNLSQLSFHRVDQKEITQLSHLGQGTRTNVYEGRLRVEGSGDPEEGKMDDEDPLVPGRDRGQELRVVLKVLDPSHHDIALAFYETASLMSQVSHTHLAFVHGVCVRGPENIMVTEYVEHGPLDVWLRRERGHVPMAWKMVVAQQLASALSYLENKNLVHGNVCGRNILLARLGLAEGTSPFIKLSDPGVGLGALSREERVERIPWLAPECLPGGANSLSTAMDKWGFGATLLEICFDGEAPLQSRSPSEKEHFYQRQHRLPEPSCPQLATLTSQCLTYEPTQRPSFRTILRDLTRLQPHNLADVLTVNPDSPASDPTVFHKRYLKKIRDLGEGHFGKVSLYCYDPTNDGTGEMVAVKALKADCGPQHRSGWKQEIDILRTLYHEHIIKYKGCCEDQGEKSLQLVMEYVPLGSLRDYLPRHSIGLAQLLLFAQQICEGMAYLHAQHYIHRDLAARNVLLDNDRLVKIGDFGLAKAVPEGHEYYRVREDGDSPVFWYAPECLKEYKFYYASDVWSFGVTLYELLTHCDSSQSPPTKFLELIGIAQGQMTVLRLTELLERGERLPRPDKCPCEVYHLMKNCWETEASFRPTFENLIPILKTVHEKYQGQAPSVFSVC

IC50 (Tyk2) [µM]	IC50 (JAK1) [µM]	IC50 (JAK2) [µM]	IC50 (JAK3) [µM]	Compound
0.1 to 1	0.1 to 1	1 to 10	≥ 10	Cn1cc(Nc2nccc(-c3cnn(C4(CC#N)CN(C(=O)C5CC5)C4)c3)n2)cn1 [TDM-180753, 2-(1-(cyclopropanecarbonyl)-3-(4-(2-((1-methyl-1H-pyrazol-4-yl)amino)pyrimidin-4-yl)-1H-pyrazol-1-yl)azetidinpyridin-3-yl)acetonitrile]
< 0.1	0.1 to 1	< 0.1	1 to 10	Cn1cc(Nc2nccc(-c3cnn(C4(CC#N)CN(S(=O)(=O)C5CC5)C4)c3)n2)cn1 [TDM-180766, 2-(1-(cyclopropylsulfonyl)-3-(4-(2-((1-methyl-1H-pyrazol-4-yl)amino)pyrimidin-4-yl)-1H-pyrazol-1-yl)azetidinpyridin-3-yl)acetonitrile]
< 0.1	0.1 to 1	0.1 to 1	1 to 10	Cn1cc(Nc2nccc(-c3ccn(C4(CC#N)CN(S(=O)(=O)C5CC5)C4)c3)n2)cn1 [TDM-180770, 2-(1-(cyclopropylsulfonyl)-3-(3-(2-((1-methyl-1H-pyrazol-4-yl)amino)pyrimidin-4-yl)-1H-pyrrol-1-yl)azetidinpyridin-3-yl)acetonitrile]
0.1 to 1	0.1 to 1	0.1 to 1	≥ 10	Cn1cc(Nc2nccc(-c3ccn(C4(CC#N)CN(C(=O)CC#N)C4)c3)n2)cn1 [TDM-180775, 3-(3-(cyanomethyl)-3-(3-(2-((1-methyl-1H-pyrazol-4-yl)amino)pyrimidin-4-yl)-1H-pyrrol-1-yl)azetidinpiperazin-1-yl)-3-oxypropionitrile]
< 0.1	< 0.1	0.1 to 1	1 to 10	Cn1cc(Nc2nccc(-c3ccn(C4(CC#N)CN(C(=O)CC(F)(F)F)C4)c3)n2)cn1 [TDM-180778]
0.1 to 1	0.1 to 1	0.1 to 1	≥ 10	CCCS(=O)(=O)N1CC(CC#N)(n2ccc(-c3ccnc(Nc4cnn(C)c4)n3)c2)C1 [TDM-180785, 2-(3-(3-(2-((1-methyl-1H-pyrazol-4-yl)amino)pyrimidin-4-yl)-1H-pyrrol-1-yl)-1-(propylsulfonyl)azetidinpyridin-3-yl)acetonitrile]
0.1 to 1	0.1 to 1	0.1 to 1	1 to 10	Cn1cc(Nc2nccc(-c3cnn(C4(CC#N)CN(S(=O)(=O)CCC(F)(F)F)C4)c3)n2)cn1 [TDM-180808, 2-(3-(4-(2-((1-methyl-1H-pyrazol-4-yl)amino)pyrimidin-4-yl)-1H-pyrazol-1-yl)-1-((3,3,3-trifluoropropyl)sulfonyl)azetidin-3-yl)acetonitrile]
1 to 10	1 to 10	0.1 to 1	≥ 10	CC(=O)N1CCN(c2ccc(-c3ccnc(Nc4cnn(C)c4)n3)cc2)CC1 [TDM-180827, 1-(4-(4-(2-((1-methyl-1H-pyrazol-4-yl)amino)pyrimidin-4-yl)phenyl)piperazin-1-yl)ethan-1-one]
1 to 10	1 to 10	1 to 10	≥ 10	CN1CCN(c2ccc(-c3ccnc(Nc4cnn(C)c4)n3)cc2)CC1 [TDM-180828, N-(1-methyl-1H-pyrazol-4-yl)-4-(4-(4-methylpiperazin-1-yl)phenyl)pyrimidin-2-amine]
0.1 to 1	0.1 to 1	< 0.1	1 to 10	Cn1cc(Nc2nccc(-c3ccn(C4(CC#N)CN(S(=O)(=O)CCCF)C4)c3)n2)cn1 [TDM-180854, 2-(1-((3-fluoropropyl)sulfonyl)-3-(3-(2-((1-methyl-1H-pyrazol-4-yl)amino)pyrimidin-4-yl)-1H-pyrrol-1-yl)azetidin-3-yl)acetonitrile]

The remaining lines, values behind:

Compound	IC50 (Tyk2) [µM]	IC50 (JAK1) [µM]	IC50 (JAK2) [µM]	IC50 (JAK3) [µM]
Cn1cc(Nc2nccc(-c3cnn(C4(CC#N)CN(C(=O)CC(F)(F)F)C4)c3)n2)cn1 [TDM-180752, 2-(3-(4-(2-((1-methyl-1H-pyrazol-4-yl)amino)pyrimidin-4-yl)-1H-pyrazol-1-yl)-1-(3,3,3-trifluoropropionyl)azetidin-3-yl)acetonitrile]	0.1 to 1	0.1 to 1	0.1 to 1	1 to 10
CCS(=O)(=O)N1CC(CC#N)(n2ccc(-c3ccnc(Nc4cnn(C)c4)n3)c2)C1 [TDM-180771, 2-(1-(ethylsulfonyl)-3-(3-(2-((1-methyl-1H-pyrazol-4-yl)amino)pyrimidin-4-yl)-1H-pyrrol-1-yl)azetidinpyridin-3-yl)acetonitrile]	< 0.1	0.1 to 1	< 0.1	1 to 10
Cn1cc(Nc2nccc(-c3ccn(C4(CC#N)CN(C(=O)C5CC5)C4)c3)n2)cn1 [TDM-180772, 2-(1-(cyclopropanecarbonyl)-3-(3-(2-((1-methyl-1H-pyrazol-4-yl)amino)pyrimidin-4-yl)-1H-pyrrol-1-yl)azetidinpyridin-3-yl)acetonitrile]	0.1 to 1	0.1 to 1	0.1 to 1	≥ 10
Cn1cc(Nc2nccc(-c3ccn(C4(CC#N)CN(C(=O)C5CC5(F)F)C4)c3)n2)cn1 (centres unmarked) [TDM-180776, 2-(1-(2,2-difluorocyclo-1-carbonyl)-3-(3-(2-((1-methyl-1H-pyrazol-4-yl)amino)pyrimidin-4-yl)-1H-pyrrol-1-yl)azetidin-3-yl)acetonitrile]	< 0.1	< 0.1	< 0.1	1 to 10
CCCS(=O)(=O)N1CC(CC#N)(n2cc(-c3ccnc(Nc4cnn(C)c4)n3)cn2)C1 [TDM-180794, 2-(3-(4-(2-((1-methyl-1H-pyrazol-4-yl)amino)pyrimidin-4-yl)-1H-pyrazol-1-yl)-1-(propylsulfonyl)azacyclobutanpyridin-3-yl)acetonitrile]	0.1 to 1	0.1 to 1	0.1 to 1	1 to 10
Cn1cc(Nc2nccc(-c3cnn(C4(CC#N)CN(S(=O)(=O)Cc5ccccc5)C4)c3)n2)cn1 [TDM-180795, 2-(1-(benzylsulfonyl)-3-(4-(2-((1-methyl-1H-pyrazol-4-yl)amino)pyrimidin-4-yl)-1H-pyrazol-1-yl)azetidinpyridin-3-yl)acetonitrile]	0.1 to 1	1 to 10	0.1 to 1	≥ 10
CCOCCS(=O)(=O)N1CC(CC#N)(n2cc(-c3ccnc(Nc4cnn(C)c4)n3)cn2)C1 [TDM-180796, 2-(1-((2-ethoxyethyl)sulfonyl)-3-(4-(2-((1-methyl-1H-pyrazol-4-yl)amino)pyrimidin-4-yl)-1H-pyrazol-1-yl)azetidin-3-yl)acetonitrile]	0.1 to 1	1 to 10	0.1 to 1	≥ 10
Cn1cc(Nc2nccc(-c3cnn(C4(CC#N)CN(S(=O)(=O)C5CCOCC5)C4)c3)n2)cn1 [TDM-180797, 2-(3-(4-(2-((1-methyl-1H-pyrazol-4-yl)amino)pyrimidin-4-yl)-1H-pyrazol-1-yl)-1-((tetrahydro-2H-pyran-4-yl)sulfonyl)azetidin-3-yl)acetonitrile]	0.1 to 1	0.1 to 1	0.1 to 1	≥ 10
C=CCS(=O)(=O)N1CC(CC#N)(n2cc(-c3ccnc(Nc4cnn(C)c4)n3)cn2)C1 [TDM-180800, 2-(1-(allylsulfonyl)-3-(4-(2-((1-methyl-1H-pyrazol-4-yl)amino)pyrimidin-4-yl)-1H-pyrazol-1-yl)azetidin-3-yl)acetonitrile]	0.1 to 1	0.1 to 1	0.1 to 1	1 to 10
CCCCS(=O)(=O)N1CC(CC#N)(n2cc(-c3ccnc(Nc4cnn(C)c4)n3)cn2)C1 [TDM-180807, 2-(1-(butylsulfonyl)-3-(4-(2-((1-methyl-1H-pyrazol-4-yl)amino)pyrimidin-4-yl)-1H-pyrazol-1-yl)azetidin-3-yl)acetonitrile]	0.1 to 1	1 to 10	0.1 to 1	≥ 10
